Test results from patent publication US6562849B1, “Amine derivative compounds” (Sankyo Company, Limited, priority 1999, dated 2003).
Where a name gives a salt, the structure may show the parent alone.

These compounds were tested on KK mice (age 4-5 months) with diabetes (assay: Blood sugar lowering effect in KK mice with diabetes). Conditions: Mus musculus, po, 72 h, powder diet containing 0.01% of the test compound for 3 days, plasma glucose vs control group, groups of 4 mice, read-out: Blood sugar decrease rate (%).
Type: in vivo
Description: [Test Example] Blood Sugar Lowering Effect
Blood samples were collected from the caudal vein of KK mice (age 4-5 months) with diabetes followed by measurement of their blood sugar levels. Next, after assigning the mice to groups (of 4 mice each) so that the mean blood sugar levels of each group were the same, mouse laboratory powder diet (F-1, Funabashi Farms), prepared so as to contain 0.01% of the test compound, was given to the mice for 3 days. The groups of mice that were given test compound were designated as the drug dose groups. It should be noted that a group that was given laboratory diet not containing the test compound was designated as the control group. Blood samples were collected from the caudal vein of the mice 3 days later and the glucose concentration of the plasma obtained by centrifugal separation was measured with a glucose analyzer (Glucoloader, A & T Corp.). The mean decrease of blood sugar rate (%) was determined according to the following equation.
Blood sugar decrease rate (%)=(mean blood sugar value of control group−mean blood sugar value […] of drug dose group)×100/(blood sugar value of control group)
In the case of `Cn1c(COc2ccc(CC3SC(=O)NC3=O)cc2)nc2ccc(Oc3ccc(CCNC(=O)NC45CC6CC(CC(C6)C4)C5)cc3)cc21` (centres unmarked) [Example 33, 1-(Adamant-1-yl)-3-[2-(4-[2-[4-(2,4-dioxothiazolidin-5-ylmethyl)phenoxymethyl]-1-methyl-1H-benzimidazol-6-yloxy]phenyl)ethyl]urea dihydrochloride], the inhibition in vivo at 0.01 % in diet was 30.4%. `Cn1c(COc2ccc(CC3SC(=O)NC3=O)cc2)nc2ccc(Oc3ccc(NC(=O)Nc4ccc(F)cc4F)cc3)cc21` (centres unmarked) [Example 5, 1-(2,4-Difluorophenyl)-3-(4-[2-[4-(2,4-dioxothiazolidin-5-ylmethyl)phenoxymethyl]-1-methyl-1H-benzimidazol-6-yloxy]phenyl)urea] was tested, and the inhibition in vivo at 0.01 % in diet was 36.2%. Work on `Cn1c(COc2ccc(CC3SC(=O)NC3=O)cc2)nc2ccc(Oc3ccc(NC(=S)NC4CCCCC4)cc3)cc21` (centres unmarked) [Example 9, 1-(4-[2-[4-(2,4-Dioxothiazolidin-5-ylmethyl)phenoxymethyl]-1-methyl-1H-benzimidazol-6-yloxy]phenyl)-3-(cyclohexyl)thiourea] yielded an inhibition in vivo at 0.01 % in diet of 47.1%. `CC(C)c1cccc(C(C)C)c1NC(=O)Nc1cccc2ccc(Oc3ccc4nc(COc5ccc(CC6SC(=O)NC6=O)cc5)n(C)c4c3)cc12` (centres unmarked) [Example 40, 1-(2,6-Diisopropylphenyl)-3-[7-[2-[4-(2,4-dioxothiazolidin-5-ylmethyl)phenoxymethyl]-1-methyl-1H-benzimidazol-6yloxy]naphthalen-1-yl)urea] was tested, and the inhibition in vivo at 0.01 % in diet was 59.3%. `CCNC(=O)Nc1ccc(Oc2ccc3nc(COc4ccc(CC5SC(=O)NC5=O)cc4)n(C)c3c2)cc1` (centres unmarked) [Example 12, 1-(4-[2-[4-(2,4-Dioxothiazolidin-5-ylmethyl)phenoxymethyl]-1-methyl-1H-benzimidazol-6-yloxy]phenyl)-3-ethylurea] showed an inhibition in vivo at 0.01 % in diet of 56.1%. Work on `Cn1c(COc2ccc(CC3SC(=O)NC3=O)cc2)nc2ccc(Oc3ccc(NC(=S)NCc4ccccc4)cc3)cc21` (centres unmarked) [Example 11, 1-Benzyl-3-(4-[2-[4-(2,4-dioxothiazolidin-5-ylmethyl)phenoxymethyl]-1-methyl-1H-benzimidazol-6-yloxy]phenyl)thiourea] yielded an inhibition in vivo at 0.01 % in diet of 32.9%. Compound `Cc1cc(Oc2ccc3nc(COc4ccc(CC5SC(=O)NC5=O)cc4)n(C)c3c2)cc(C)c1NC(=O)Nc1ccc([N+](=O)[O-])cc1` (centres unmarked) [Example 3, 1-(4-[2-[4-(2,4-Dioxothiazolidin-5-ylmethyl)phenoxymethyl]-1-methyl-1H-benzimidazol-6-yloxy]-2,6-dimethylphenyl)-3-(4-nitrophenyl)urea] has an inhibition in vivo at 0.01 % in diet of 49.9%. `Cn1c(COc2ccc(CC3SC(=O)NC3=O)cc2)nc2ccc(Oc3ccc(NC(=O)c4ccncc4)cc3)cc21` (centres unmarked) [Example 55, N-[4-[2-[4-(2,4-Dioxothiazolidin-5-ylmethyl)phenoxymethyl]-1-methyl-1H-benzimidazol-6-yloxy]phenyl]isonicotinamide] showed an inhibition in vivo at 0.01 % in diet of 53.8%. `Cn1c(COc2ccc(CC3SC(=O)NC3=O)cc2)nc2ccc(Oc3ccc(NC(=O)C4CCCC4)cc3)cc21` (centres unmarked) [Example 59, N-[4-[2-[4(2,4-dioxothiazolidin-5-ylmethyl)phenoxymethyl]-1-methyl-1H-benzimidazol-6-yloxy]phenyl]cyclopentanecarboxamide] showed an inhibition in vivo at 0.01 % in diet of 56.8%. Work on `Cc1cc(Oc2ccc3nc(COc4ccc(CC5SC(=O)NC5=O)cc4)n(C)c3c2)cc(C)c1NC(=S)Nc1ccc(Cl)cc1` (centres unmarked) [Example 2, 1-(4-Chlorophenyl)-3-(4-[2-[4-(2,4-dioxothiazolidin-5-ylmethyl)phenoxymethyl]-1-methyl-1H-benzimidazol-6-yloxy]-2,6-dimethylphenyl)thiourea] yielded an inhibition in vivo at 0.01 % in diet of 48.9%. `CCCCCCN(C(C)=O)c1ccc(Oc2ccc3nc(COc4ccc(CC5SC(=O)NC5=O)cc4)n(C)c3c2)cc1` (centres unmarked) [Example 61, N-[4-[2-[4-(2,4-Dioxothiazolidin-5-ylmethyl)phenoxymethyl]-1-methyl-1H-benzimidazol-6-yloxy]phenyl]-N-n-hexylacetamide hydrochloride] was tested, and the inhibition in vivo at 0.01 % in diet was 54.2%. In the case of `Cn1c(COc2ccc(CC3SC(=O)NC3=O)cc2)nc2ccc(Oc3ccc(NC(=O)c4cccnc4)cc3)cc21` (centres unmarked) [Example 56, N-[4-[2-[4-(2,4-Dioxothiazolidin-5-ylmethyl)phenoxymethyl]-1-methyl-1H-benzimidazol-6-yloxy]phenyl]nicotinamide], the inhibition in vivo at 0.01 % in diet was 63.6%. `CCCCCCN(C(=O)Nc1ccc(F)cc1)c1ccc(Oc2ccc3nc(COc4ccc(CC5SC(=O)NC5=O)cc4)n(C)c3c2)cc1` (centres unmarked) [Example 16, 1-(4-[2-[4-(2,4-Dioxothiazolidin-5-ylmethyl)phenoxymethyl]-1-methyl-1H-benzimidazol-6-yloxy]phenyl)-1-n-hexyl-3-(4-fluorophenyl)urea] gave an inhibition in vivo at 0.01 % in diet of 42.9%. In the case of `Cn1c(COc2ccc(CC3SC(=O)NC3=O)cc2)nc2ccc(Oc3ccc(NC(=O)NC45CC6CC(CC(C6)C4)C5)cc3)cc21` (centres unmarked) [Example 14, 1-(Adamant-1-yl)-3-(4-[2-[4-(2,4-dioxothiazolidin-5-ylmethyl)phenoxymethyl]-1-methyl-1H-benzimidazol-6-yloxy]phenyl)urea], the inhibition in vivo at 0.01 % in diet was 63.2%. Compound `Cn1c(COc2ccc(CC3SC(=O)NC3=O)cc2)nc2ccc(Oc3ccc(CCNC(=O)Nc4ccc(C(F)(F)F)cc4)cc3)cc21` (centres unmarked) [Example 34, 1-[2-(4-[2-[4-(2,4-Dioxothiazolidin-5-ylmethyl)phenoxymethyl]-1-methyl-1H-benzimidazol-6-yloxy]phenyl)ethyl]-3-[4-(trifluoromethyl)phenyl]urea hydrochloride] has an inhibition in vivo at 0.01 % in diet of 32.8%. In the case of `Cn1c(COc2ccc(CC3SC(=O)NC3=O)cc2)nc2ccc(Oc3ccc(CCNC(=O)c4cccnc4)cc3)cc21` (centres unmarked) [Example 63, N-[2-[4-[2-[4-(2,4-Dioxothiazolidin-5-ylmethyl)phenoxymethyl]-1-methyl-1H-benzimidazol-6-yloxy]phenyl]ethyl]nicotinamide dihydrochloride], the inhibition in vivo at 0.01 % in diet was 55.7%. For `Cn1c(COc2ccc(CC3SC(=O)NC3=O)cc2)nc2ccc(Oc3ccc(NC(=O)c4ccc(F)cc4F)cc3)cc21` (centres unmarked) [Example 57, 2,4-Difluoro-N-[4-[2-[4-(2,4-dioxothiazolidin-5-ylmethyl)phenoxymethyl]-1-methyl-1H-benzimidazol-6-yloxy]phenyl]benzamide], the inhibition in vivo at 0.01 % in diet was 57.3%. `Cn1c(COc2ccc(CC3SC(=O)NC3=O)cc2)nc2ccc(Oc3ccc(CCNC(=O)Cc4cccc(Cl)c4)cc3)cc21` (centres unmarked) [Example 64, 2-(3-Chlorophenyl)-N-[2-[4-[2-[4-(2,4-dioxothiazolidin-5-ylmethyl)phenoxymethyl]-1-methyl-1H-benzimidazol-6-yloxy]phenyl]ethyl]acetamide hydrochloride] was tested, and the inhibition in vivo at 0.01 % in diet was 43.5%. `Cn1c(COc2ccc(CC3SC(=O)NC3=O)cc2)nc2ccc(Oc3ccc(NC(=O)Nc4ccccc4)cc3)cc21` (centres unmarked) [Example 4, 1-(4-[2-[4-(2,4-Dioxothiazolidin-5-ylmethyl)phenoxymethyl]-1-methyl-1H-benzimidazol-6-yloxy]phenyl)-3-phenylurea] was tested, and the inhibition in vivo at 0.01 % in diet was 48.6%. For `Cn1c(COc2ccc(CC3SC(=O)NC3=O)cc2)nc2ccc(OCCc3ccc(NC(=O)Nc4ccc(C(F)(F)F)cc4)cc3)cc21` (centres unmarked) [Example 37, 1-[4-(2-[2-[4-(2,4-Dioxothiazolidin-5-ylmethyl)phenoxymethyl]-1-methyl-1H-benzimidazol-6-yloxy]ethyl)phenyl]-3-[4-(trifluoromethyl)phenyl]urea], the inhibition in vivo at 0.01 % in diet was 35.2%. In the case of `Cn1c(COc2ccc(CC3SC(=O)NC3=O)cc2)nc2ccc(Oc3ccc(CCNC(=O)Nc4ccc(F)cc4F)cc3)cc21` (centres unmarked) [Example 31, 1-(2,4-Difluorophenyl)-3-[2-(4-[2-[4-(2,4-dioxothiazolidin-5-ylmethyl)phenoxymethyl]-1-methyl-1H-benzimidazol-6-yloxy]phenyl)ethyl]urea], the inhibition in vivo at 0.01 % in diet was 50.5%. `CC(=O)Nc1ccc(Oc2ccc3nc(COc4ccc(CC5SC(=O)NC5=O)cc4)n(C)c3c2)cc1` (centres unmarked) [Example 52, N-[4-[2-[4-(2,4-Dioxothiazolidin-5-ylmethyl)phenoxymethyl]-1-methyl-1H-benzimidazol-6-yloxy]phenyl]acetamide] showed an inhibition in vivo at 0.01 % in diet of 58.5%. In the case of `Cn1c(COc2ccc(CC3SC(=O)NC3=O)cc2)nc2ccc(Oc3ccc(NC(=O)c4ccccc4)cc3)cc21` (centres unmarked) [Example 53, N-[4-[2-[4-(2,4-Dioxothiazolidin-5-ylmethyl)phenoxymethyl]-1-methyl-1H-benzimidazol-6-yloxy]phenyl]benzamide], the inhibition in vivo at 0.01 % in diet was 59.6%. `Cn1c(COc2ccc(CC3SC(=O)NC3=O)cc2)nc2ccc(Oc3ccc(NC(=O)c4ccc5ccccc5c4)cc3)cc21` (centres unmarked) [Example 60, N-[4-[2-[4-(2,4-Dioxothiazolidin-5-ylmethyl)phenoxymethyl]-1-methyl-1H-benzimidazol-6-yloxy]phenyl]naphthalene-2-carboxamide] gave an inhibition in vivo at 0.01 % in diet of 49.8%. `Cn1c(COc2ccc(CC3SC(=O)NC3=O)cc2)nc2ccc(Oc3ccc(NC(=O)c4cccc(Cl)c4)cc3)cc21` (centres unmarked) [Example 54, 3-Chloro-N-[4-[2-[4-(2,4-dioxothiazolidin-5-ylmethyl)phenoxymethyl]-1-methyl-1H-benzimidazol-6-yloxy]phenyl]benzamide] gave an inhibition in vivo at 0.01 % in diet of 43.4%. Work on `Cn1c(COc2ccc(CC3SC(=O)NC3=O)cc2)nc2ccc(Oc3ccc4cccc(NC(=S)NCc5ccccc5)c4c3)cc21` (centres unmarked) [Example 44, 1-Benzyl-3-(7-[2-[4-(2,4-dioxothiazolidin-5-ylmethyl)phenoxymethyl]-1-methyl-1H-benzimidazol-6-yloxy]naphthalen-1-yl)thiourea] yielded an inhibition in vivo at 0.01 % in diet of 47.2%.
